Measured values taken from ChEMBL document CHEMBL1201862, “PubChem BioAssay data set” (2004).
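Assay format: 96-well plates, 48-hour exposure. Here, GI50 denotes the concentration required for 50% inhibition of growth.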 Calls of active or inactive are those of the source. No stated cut-off is given here; in the data, active = GI50 up to about 1.1 µM and inactive = higher.

Legend:
Test in all cases: inhibition of tumour cell growth, NCI panel, 48 h
HL-60 = system: HL-60
SNB-19 = system: SNB-19
786-0 = system: 786-0
BT-549 = system: BT-549
MDA-MB-231 = system: MDA-MB-231
OVCAR-4 = system: OVCAR-4
HCT-15 = system: HCT-15
MOLT-4 = system: MOLT-4
COLO 205 = system: COLO 205
EKVX = system: EKVX
MDA-N = system: MDA-N
Malme-3M = system: Malme-3M
MDA-MB-435 = system: MDA-MB-435
TK-10 = system: TK-10
OVCAR-8 = system: OVCAR-8
ACHN = system: ACHN
SF-295 = system: SF-295
SN12C = system: SN12C
CCRF-CEM = system: CCRF-CEM
T47D = system: T47D

SMILES	GI50 (HL-60)	GI50 (SNB-19)	GI50 (786-0)	GI50 (BT-549)	GI50 (MDA-MB-231)	GI50 (OVCAR-4)	GI50 (HCT-15)	GI50 (MOLT-4)	GI50 (COLO 205)	GI50 (EKVX)	GI50 (MDA-N)	GI50 (Malme-3M)	GI50 (MDA-MB-435)	GI50 (TK-10)	GI50 (OVCAR-8)	GI50 (ACHN)	GI50 (SF-295)	GI50 (SN12C)	GI50 (CCRF-CEM)	GI50 (T47D)
O=c1cc(/N=N/c2ccc(O)cc2)[nH]c(=O)[nH]1	> 100 µM (inactive)	> 100 µM (inactive)	39.8 µM (inactive)	> 100 µM (inactive)	> 100 µM (inactive)	> 100 µM (inactive)	> 100 µM	> 100 µM (inactive)	> 100 µM (inactive)	> 100 µM (inactive)	> 100 µM (inactive)	28.8 µM (inactive)	> 100 µM (inactive)	99.3 µM (inactive)	> 100 µM (inactive)	> 100 µM (inactive)	> 100 µM (inactive)	66.7 µM (inactive)	–	–
CC1=Cc2ccc(C)cc2C(=O)C1=O	1 µM (active)	22.2 µM (inactive)	1.85 µM (inactive)	21.2 µM (inactive)	20.6 µM (inactive)	4.94 µM (inactive)	19.3 µM	0.605 µM (active)	6.07 µM (inactive)	18.3 µM (inactive)	4.18 µM (inactive)	–	2.06 µM (inactive)	1.83 µM (inactive)	5.3 µM (inactive)	1.95 µM (inactive)	18.5 µM (inactive)	5.04 µM (inactive)	0.176 µM (active)	1.82 µM (inactive)
CCOC(=O)N1c2c(c3ccccc3n2C(=O)OCC)C(=O)C(OC)N1C(=O)OCC (configuration not stated)	17.2 µM (inactive)	41.4 µM (inactive)	43.2 µM (inactive)	60.7 µM (inactive)	22.9 µM (inactive)	41.9 µM (inactive)	27.7 µM	21.6 µM (inactive)	15.5 µM (inactive)	22 µM (inactive)	33.2 µM (inactive)	31.9 µM (inactive)	32.1 µM (inactive)	50.5 µM (inactive)	21.7 µM (inactive)	25.6 µM (inactive)	19.6 µM (inactive)	28.8 µM (inactive)	19.5 µM (inactive)	–
NNc1nncn1N	5.71 µM (inactive)	> 100 µM (inactive)	> 80 µM (inactive)	> 100 µM (inactive)	> 100 µM (inactive)	38.1 µM (inactive)	> 100 µM	> 62.4 µM (inactive)	> 100 µM (inactive)	> 100 µM (inactive)	–	> 55 µM (inactive)	19.2 µM (inactive)	> 100 µM (inactive)	> 96.6 µM (inactive)	> 100 µM (inactive)	> 100 µM (inactive)	> 73.1 µM (inactive)	1.25 µM (inactive)	63 µM (inactive)
CNc1nc2c(C)ccc3nc(N(C)C)nc-3c2n1C	–	> 10 µM (inactive)	> 10 µM (inactive)	> 10 µM (inactive)	> 10 µM (inactive)	> 10 µM (inactive)	> 10 µM	> 10 µM (inactive)	> 10 µM (inactive)	> 10 µM (inactive)	> 10 µM (inactive)	> 10 µM (inactive)	> 10 µM (inactive)	> 10 µM (inactive)	> 10 µM (inactive)	> 10 µM (inactive)	> 10 µM (inactive)	7.96 µM (inactive)	> 10 µM (inactive)	> 10 µM (inactive)
CC(C)OC(=O)c1ccc(NCC2=CC(=O)C=CC2=O)cc1Cl	0.904 µM (active)	6.11 µM (inactive)	14.1 µM (inactive)	2.62 µM (inactive)	16.4 µM (inactive)	12.7 µM (inactive)	4.4 µM	3.72 µM (inactive)	4.07 µM (inactive)	15.4 µM (inactive)	8.39 µM (inactive)	–	9.44 µM (inactive)	15.7 µM (inactive)	5.68 µM (inactive)	4.36 µM (inactive)	17.8 µM (inactive)	16.1 µM (inactive)	0.448 µM (active)	2.3 µM (inactive)
O=c1[nH]c2ccc(O)cc2o1	> 100 µM (inactive)	> 100 µM (inactive)	> 100 µM (inactive)	> 100 µM (inactive)	> 100 µM (inactive)	> 100 µM (inactive)	> 100 µM	> 100 µM (inactive)	> 100 µM (inactive)	> 100 µM (inactive)	> 100 µM (inactive)	0.601 µM (active)	–	> 100 µM (inactive)	> 100 µM (inactive)	> 100 µM (inactive)	> 100 µM (inactive)	> 100 µM (inactive)	> 100 µM (inactive)	> 100 µM (inactive)
CCCCS(=O)(=O)CCC(N)P(=O)(O)O (configuration not stated)	> 100 µM (inactive)	> 100 µM (inactive)	> 100 µM (inactive)	> 100 µM (inactive)	–	> 100 µM (inactive)	> 100 µM	> 100 µM (inactive)	> 100 µM (inactive)	> 100 µM (inactive)	> 100 µM (inactive)	> 100 µM (inactive)	> 100 µM (inactive)	> 100 µM (inactive)	> 100 µM (inactive)	> 100 µM (inactive)	> 100 µM (inactive)	> 100 µM (inactive)	> 100 µM (inactive)	> 100 µM (inactive)
Cc1cc2c(O)c(c1)CN(CC(=O)O)Cc1cc(C)cc(c1O)CN(CC(=O)O)Cc1cc(C)cc(c1O)CN(CC(=O)O)C2	–	> 100 µM (inactive)	> 100 µM (inactive)	> 100 µM (inactive)	> 100 µM (inactive)	> 100 µM (inactive)	> 100 µM	> 100 µM (inactive)	> 100 µM (inactive)	> 100 µM (inactive)	> 100 µM (inactive)	> 100 µM (inactive)	> 100 µM (inactive)	> 100 µM (inactive)	> 100 µM (inactive)	> 100 µM (inactive)	> 100 µM (inactive)	> 100 µM (inactive)	> 100 µM (inactive)	> 100 µM (inactive)
CCc1n[nH]c(=O)n1/N=C(\C)c1ccc([N+](=O)[O-])cc1	> 100 µM (inactive)	> 100 µM (inactive)	> 100 µM (inactive)	> 100 µM (inactive)	19.7 µM (inactive)	> 100 µM (inactive)	> 100 µM	> 100 µM (inactive)	46.5 µM (inactive)	> 100 µM (inactive)	> 100 µM (inactive)	–	59.7 µM (inactive)	> 100 µM (inactive)	> 100 µM (inactive)	–	> 100 µM (inactive)	54.7 µM (inactive)	> 100 µM (inactive)	> 100 µM (inactive)
Sc1nnc(Cc2ccc(Cl)cc2)[nH]1	–	71 µM (inactive)	61.4 µM (inactive)	> 100 µM (inactive)	42.3 µM (inactive)	71.9 µM (inactive)	59.6 µM	50.2 µM (inactive)	48 µM (inactive)	47.1 µM (inactive)	> 100 µM (inactive)	29.1 µM (inactive)	88.3 µM (inactive)	66.2 µM (inactive)	46.6 µM (inactive)	45.3 µM (inactive)	43.7 µM (inactive)	78.2 µM (inactive)	63.1 µM (inactive)	29.4 µM (inactive)
CC(C)=CCc1c2c(c3occ(-c4ccc(O)c(O)c4)c(=O)c3c1O)C=CC(C)(C)O2 [POMIFERIN]	–	1.96 µM (inactive)	1.51 µM (inactive)	3.46 µM (inactive)	1.39 µM (inactive)	1.59 µM (inactive)	1.91 µM	0.553 µM (active)	1.78 µM (inactive)	4.86 µM (inactive)	1.7 µM (inactive)	1.14 µM (inactive)	1.75 µM (inactive)	1.6 µM (inactive)	2.81 µM (inactive)	2.39 µM (inactive)	3.77 µM (inactive)	1.58 µM (inactive)	0.723 µM (active)	1.86 µM (inactive)
CC/C=C\C/C=C\C/C=C\CCCCCCCC(=O)OC(COC(=O)CCCCCCCCCCCCCCCCC)COC1OC(CO)C(O)C(O)C1O (configuration not stated)	> 25 µM (inactive)	> 25 µM (inactive)	> 25 µM (inactive)	> 25 µM (inactive)	> 25 µM (inactive)	> 25 µM (inactive)	> 25 µM	> 25 µM (inactive)	> 25 µM (inactive)	4.7 µM (inactive)	> 25 µM (inactive)	–	> 25 µM (inactive)	> 25 µM (inactive)	15.9 µM (inactive)	> 25 µM (inactive)	> 25 µM (inactive)	> 25 µM (inactive)	> 25 µM (inactive)	> 25 µM (inactive)
Cc1cc(C)n2nc3nc(N)c(C#N)c(-c4ccccc4)c3c2n1	> 100 µM (inactive)	> 100 µM (inactive)	> 100 µM (inactive)	> 100 µM (inactive)	> 100 µM (inactive)	> 100 µM (inactive)	> 100 µM	> 100 µM (inactive)	> 100 µM (inactive)	> 100 µM (inactive)	> 100 µM (inactive)	> 100 µM (inactive)	> 100 µM (inactive)	> 100 µM (inactive)	> 100 µM (inactive)	> 100 µM (inactive)	> 100 µM (inactive)	> 100 µM (inactive)	> 100 µM (inactive)	–
CCOC(=O)/C=C/[C@@H](CC)O[Si](C(C)C)(C(C)C)C(C)C	–	> 100 µM (inactive)	> 100 µM (inactive)	> 100 µM (inactive)	> 100 µM (inactive)	> 100 µM (inactive)	> 100 µM	> 100 µM (inactive)	> 100 µM (inactive)	> 100 µM (inactive)	> 100 µM (inactive)	> 100 µM (inactive)	> 100 µM (inactive)	> 100 µM (inactive)	> 100 µM (inactive)	> 100 µM (inactive)	48.4 µM (inactive)	–	42.2 µM (inactive)	> 100 µM (inactive)
